Experiment [1] deals with T1, human P2X4 (Homo sapiens, UniProt Q99571).
T1 construct: expressed in transfected cells
T1 sequence (Q99571 1-388): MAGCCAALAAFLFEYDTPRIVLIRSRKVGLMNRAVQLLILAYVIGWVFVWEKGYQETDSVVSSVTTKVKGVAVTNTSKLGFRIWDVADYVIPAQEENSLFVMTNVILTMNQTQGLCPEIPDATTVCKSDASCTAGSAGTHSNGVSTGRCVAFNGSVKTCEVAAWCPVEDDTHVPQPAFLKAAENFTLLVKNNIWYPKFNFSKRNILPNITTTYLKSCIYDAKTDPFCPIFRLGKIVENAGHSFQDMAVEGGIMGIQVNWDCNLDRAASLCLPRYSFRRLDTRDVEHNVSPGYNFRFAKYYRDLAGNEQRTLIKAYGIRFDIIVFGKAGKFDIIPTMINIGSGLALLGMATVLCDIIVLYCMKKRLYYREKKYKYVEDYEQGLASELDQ
Kind of experiment: Human P2X4 HEK Cell FLIPR Assay. The conditions noted are these: HEK293 stably expressing human P2X4, agonist Bz-ATP 3 μM (EC80); for IC50: read-out: Human P2X4 HEK Cells (FLIPR Assay) avg IC50. The experiment is classed as cell-based. Summed up:
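HEK293 cells stably expressing human P2X4 were loaded with Fluo8-AM (30 min, 37 °C, HBSS/HEPES pH 7.4 with probenecid), then preincubated 30 min at room temperature with compound, 25 μM–1 nM final, 0.5% DMSO. Bz-ATP-evoked calcium fluorescence was read on FLIPR; data were normalized to agonist control and given a four-parameter fit for IC50.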

Experiment [2] deals with T2, rat P2X4 (Rattus norvegicus, UniProt P51577).
T2 construct: expressed in transfected cells
T2 sequence (P51577 1-388): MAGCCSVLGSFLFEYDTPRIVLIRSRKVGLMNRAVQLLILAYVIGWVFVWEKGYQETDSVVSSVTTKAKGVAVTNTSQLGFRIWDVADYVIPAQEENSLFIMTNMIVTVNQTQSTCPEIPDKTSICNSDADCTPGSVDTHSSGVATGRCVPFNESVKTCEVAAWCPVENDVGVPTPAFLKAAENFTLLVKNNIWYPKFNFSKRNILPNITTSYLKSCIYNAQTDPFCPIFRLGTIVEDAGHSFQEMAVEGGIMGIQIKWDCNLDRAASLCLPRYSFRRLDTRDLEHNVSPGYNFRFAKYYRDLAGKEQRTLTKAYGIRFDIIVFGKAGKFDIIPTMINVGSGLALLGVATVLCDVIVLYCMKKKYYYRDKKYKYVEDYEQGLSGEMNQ
Kind of experiment: FLIPR Method for Rat P2X4 1321N1 Astrocytoma Cells. As to conditions: 1321N1 stably expressing rat P2X4; agonist MgATP 5 μM (EC80). The experiment is classed as cell-based. Summed up:
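1321N1 cells stably expressing rat P2X4, Fluo8-AM loaded; compounds (25 μM to 1 nM final, ten concentrations) preincubated 30 min at room temperature, then MgATP added at 5 μM (EC80). Calcium fluorescence read on FLIPR before and after agonist; triplicate data normalized to agonist control, four-parameter fit gives IC50.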

By IC50 is commonly meant the concentration needed to halve the response being measured. With `CC(=O)N(c1cc(NC(=O)Cc2ccccc2Cl)ccn1)c1cc(F)ccc1Cl` [Example 111, N-(2-chloro-5-fluorophenyl)-N-{4-[2-(2-chlorophenyl)acetamido]pyridin-2-yl}acetamide], in experiment [1], the “Human P2X4 HEK Cells (FLIPR Assay) avg Efficacy” value (“Human P2X4 HEK Cells” for short) is 96% and the IC50 worked out at 0.204 µM. In addition, in experiment [2], the half-inhibitory concentration (IC50) was 0.32 µM and the “Rat P2X4 1321N1 Astrocytoma Cells (FLIPR Assay) avg Efficacy” value (shortened to “Rat P2X4 1321N1 Astrocytoma Cells”) is reported as 100%.
Consider `CC(=O)N(c1cc(NC(=O)Cc2ccc(F)cc2Cl)ccn1)c1cc(F)ccc1Cl` [Example 112, N-(2-chloro-5-fluorophenyl)-N-{4-[2-(2-chloro-4-fluorophenyl)acetamido]pyridin-2-yl}acetamide], for which, in experiment [1], the “Human P2X4 HEK Cells” value is 96% and the IC50 was 0.403 µM. For the same molecule, in experiment [2], the half-inhibitory concentration (IC50) is 0.408 µM and the “Rat P2X4 1321N1 Astrocytoma Cells” value turned out to be 97%.
Consider `CC(=O)N(c1cc(NC(=O)Cc2cccc(F)c2Cl)ccn1)c1cc(F)ccc1Cl` [Example 113, N-(2-chloro-5-fluorophenyl)-N-{4-[2-(2-chloro-3-fluorophenyl)acetamido]pyridin-2-yl}acetamide], for which, in experiment [1], the “Human P2X4 HEK Cells” value was 97% and the IC50 was 0.286 µM. In addition, in experiment [2], the IC50 was 0.567 µM and the “Rat P2X4 1321N1 Astrocytoma Cells” value worked out at 100%.
As for `CC(=O)N(c1cc(NC(=O)Cc2c(Cl)cccc2Cl)ccn1)c1cc(F)ccc1Cl` [Example 114, N-(2-chloro-5-fluorophenyl)-N-{4-[2-(2,6-dichlorophenyl)acetamido]pyridin-2-yl}acetamide], in experiment [1], the “Human P2X4 HEK Cells” value turned out to be 97% and the IC50 was 0.256 µM. In experiment [2], the IC50 was 0.181 µM and the “Rat P2X4 1321N1 Astrocytoma Cells” value stood at 99%.
On to `CC(=O)N(c1cc(NC(=O)Cc2ccc(F)cc2Cl)ccn1)c1cccc(F)c1F` [Example 123, N-{4-[2-(2-chloro-4-fluorophenyl)acetamido]pyridin-2-yl}-N-(2,3-difluorophenyl)acetamide], for which, in experiment [1], the “Human P2X4 HEK Cells” value is recorded as 97% and the IC50 came out at 0.435 µM. In experiment [2], the IC50 amounted to 0.633 µM and the “Rat P2X4 1321N1 Astrocytoma Cells” value was determined as 89%.
Regarding `CC(=O)N(c1cc(NC(=O)Cc2ccccc2Cl)ccn1)c1ccc(F)cc1F` [Example 126, N-{4-[2-(2-chlorophenyl)acetamido]pyridin-2-yl}-N-(2,4-difluorophenyl)acetamide], in experiment [1], the “Human P2X4 HEK Cells” value amounted to 96% and the IC50 is 0.176 µM. Also, in experiment [2], the IC50 turned out to be 0.377 µM and the “Rat P2X4 1321N1 Astrocytoma Cells” value is 83%.
`CC(=O)N(c1cc(NC(=O)Cc2ccc(F)cc2Cl)ccn1)c1ccc(F)cc1F` [Example 127, N-{4-[2-(2-chloro-4-fluorophenyl)acetamido]pyridin-2-yl}-N-(2,4-difluorophenyl)acetamide]: in experiment [1], the “Human P2X4 HEK Cells” value is 97% and the IC50 came out at 0.283 µM. Moreover, in experiment [2], the IC50 is 0.261 µM and the “Rat P2X4 1321N1 Astrocytoma Cells” value is listed as 72%.
For the molecule `CC(=O)N(c1cc(NC(=O)Cc2cccc(F)c2Cl)ccn1)c1ccc(F)cc1F` [Example 128, N-{4-[2-(2-chloro-3-fluorophenyl)acetamido]pyridin-2-yl}-N-(2,4-difluorophenyl)acetamide], in experiment [1], the “Human P2X4 HEK Cells” value was 101% and the IC50 was 0.184 µM. In experiment [2], the IC50 worked out at 0.454 µM and the “Rat P2X4 1321N1 Astrocytoma Cells” value is listed as 87%.
`CC(=O)N(c1cc(NC(=O)Cc2c(Cl)cccc2Cl)ccn1)c1ccc(F)cc1F` [Example 129, N-{4-[2-(2,6-dichlorophenyl)acetamido]pyridin-2-yl}-N-(2,4-difluorophenyl)acetamide]: in experiment [1], the “Human P2X4 HEK Cells” value was found to be 104% and the IC50 was found to be 0.197 µM. For the same molecule, in experiment [2], the IC50 worked out at 0.212 µM and the “Rat P2X4 1321N1 Astrocytoma Cells” value came out at 96%.
Regarding `CC(=O)N(c1cc(NC(=O)Cc2c(F)cccc2Cl)ccn1)c1ccc(F)cc1F` [Example 130, N-{4-[2-(2-chloro-6-fluorophenyl)acetamido]pyridin-2-yl}-N-(2,4-difluorophenyl)acetamide], in experiment [1], the “Human P2X4 HEK Cells” value was found to be 97% and the IC50 came out at 0.259 µM. In experiment [2], the IC50 is 1.52 µM and the “Rat P2X4 1321N1 Astrocytoma Cells” value is 80%.
With `CC(=O)N(c1cccc(Cl)c1)c1cc(NC(=O)Cc2ccccc2Cl)ccn1` [Example 131, N-(3-chlorophenyl)-N-{4-[2-(2-chlorophenyl)acetamido]pyridin-2-yl}acetamide], in experiment [1], the “Human P2X4 HEK Cells” value is 98% and the IC50 turned out to be 0.206 µM. In experiment [2], the IC50 was 0.262 µM and the “Rat P2X4 1321N1 Astrocytoma Cells” value came to 98%.
For `CC(=O)N(c1cccc(Cl)c1)c1cc(NC(=O)Cc2ccc(F)cc2Cl)ccn1` [Example 132, N-{4-[2-(2-chloro-4-fluorophenyl)acetamido]pyridin-2-yl}-N-(3-chlorophenyl)acetamide], in experiment [1], the “Human P2X4 HEK Cells” value was 98% and the IC50 turned out to be 0.299 µM. In experiment [2], the IC50 is 0.228 µM and the “Rat P2X4 1321N1 Astrocytoma Cells” value is 97%.
With `CC(=O)N(c1cccc(Cl)c1)c1cc(NC(=O)Cc2cccc(F)c2Cl)ccn1` [Example 133, N-{4-[2-(2-chloro-3-fluorophenyl)acetamido]pyridin-2-yl}-N-(3-chlorophenyl)acetamide], in experiment [1], the “Human P2X4 HEK Cells” value came to 100% and the IC50 was determined as 0.193 µM. Further, in experiment [2], the IC50 turned out to be 0.325 µM and the “Rat P2X4 1321N1 Astrocytoma Cells” value was 100%.
For `CC(=O)N(c1cccc(Cl)c1)c1cc(NC(=O)Cc2c(F)cccc2Cl)ccn1` [Example 135, N-{4-[2-(2-chloro-6-fluorophenyl)acetamido]pyridin-2-yl}-N-(3-chlorophenyl)acetamide], in experiment [1], the “Human P2X4 HEK Cells” value was found to be 99% and the half-maximal inhibitory concentration (IC50) worked out at 0.281 µM. Besides, in experiment [2], the IC50 came out at 0.264 µM and the “Rat P2X4 1321N1 Astrocytoma Cells” value is listed as 96%.
In the case of `CCCC(=O)N(c1ccc(F)cc1)c1cc(NC(=O)Cc2ccc(F)cc2Cl)ccn1` [Example 141, N-{4-[2-(2-chloro-4-fluorophenyl)acetamido]pyridin-2-yl}-N-(4-fluorophenyl)butanamide], in experiment [1], the “Human P2X4 HEK Cells” value is given as 99% and the IC50 was determined as 0.891 µM. In experiment [2], the IC50 stood at 0.726 µM and the “Rat P2X4 1321N1 Astrocytoma Cells” value is 100%.
The matching figures for `CCCC(=O)N(c1ccc(F)cc1)c1cc(NC(=O)Cc2c(F)cccc2Cl)ccn1` [Example 142, N-{4-[2-(2-chloro-6-fluorophenyl)acetamido]pyridin-2-yl}-N-(4-fluorophenyl)butanamide]: 86%, 0.796 µM, 0.767 µM and 98%.
Take `CCCC(=O)N(c1ccc(F)cc1)c1cc(NC(=O)Cc2ccccc2Cl)ccn1` [Example 143, N-{4-[2-(2-chlorophenyl)acetamido]pyridin-2-yl}-N-(4-fluorophenyl)butanamide]: in experiment [1], the “Human P2X4 HEK Cells” value is 94% and the IC50 stood at 0.723 µM. In addition, in experiment [2], the half-inhibitory concentration (IC50) stood at 0.934 µM and the “Rat P2X4 1321N1 Astrocytoma Cells” value is 101%.
The matching figures for `CCCC(=O)N(c1ccc(F)cc1)c1cc(NC(=O)Cc2c(Cl)cccc2Cl)ccn1` [Example 144, N-{4-[2-(2,6-dichlorophenyl)acetamido]pyridin-2-yl}-N-(4-fluorophenyl)butanamide]: 90%, 0.648 µM, 0.557 µM and 100%.

Values taken from patent US20230257351A1, “SUBSTITUTED N-[…] HAVING P2X4 RECEPTOR ANTAGONISTIC ACTIVITY” (Bayer Aktiengesellschaft, priority 2020, published 2023).
